Assay results as given in ChEMBL document CHEMBL1201862, “PubChem BioAssay data set” (2004).
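All cell lines were grown in 96-well plates and treated with compound for 48 hours. Here, GI50 denotes the concentration required for 50% inhibition of growth.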 Active and inactive are the calls of the source. Cut-off read from the data, not from the text of the source: active = GI50 up to about 1.1 µM and inactive = higher. Positions of bridges follow the written chain, without caps; N, C: chain ends. Non-standard residues stand in square brackets, D forms with d. Residues, ends and D or L forms follow the SMILES beside them. Aib = CC(C)(N)C(=O)O; βAla = NCCC(=O)O

Legend:
Experiment in all cases: inhibition of tumour cell growth, NCI panel, 48 h
[1] = test system: BT-549
[2] = test system: HOP-62
[3] = test system: HT-29
[4] = test system: IGROV-1
[5] = test system: KM12
[6] = test system: M14
[7] = test system: MDA-MB-231
[8] = test system: NCI-H460
[9] = test system: OVCAR-4
[10] = test system: RPMI-8226
[11] = test system: RXF 393
[12] = test system: SF-268
[13] = test system: SF-295
[14] = test system: SK-MEL-2
[15] = test system: SN12C
[16] = test system: SNB-19
[17] = test system: SW-620
[18] = test system: T47D
[19] = test system: U-251
[20] = test system: UACC-257

| Compound | GI50 [1] | GI50 [2] | GI50 [3] | GI50 [4] | GI50 [5] | GI50 [6] | GI50 [7] | GI50 [8] | GI50 [9] | GI50 [10] | GI50 [11] | GI50 [12] | GI50 [13] | GI50 [14] | GI50 [15] | GI50 [16] | GI50 [17] | GI50 [18] | GI50 [19] | GI50 [20] |
| --- | --- | --- | --- | --- | --- | --- | --- | --- | --- | --- | --- | --- | --- | --- | --- | --- | --- | --- | --- | --- |
| O=C(NCCCNCCNC(=O)c1cc(-c2ccccc2)nc2ccccc12)c1cc(-c2ccccc2)nc2ccccc12 | 11.6 µM (inactive) | 1.69 µM (inactive) | 1.52 µM (inactive) | 1.95 µM (inactive) | 1.91 µM (inactive) | 2.24 µM (inactive) | 1.86 µM (inactive) | 1.83 µM (inactive) | 2.13 µM (inactive) | 3.25 µM (inactive) | 2 µM (inactive) | 2.1 µM (inactive) | 1.73 µM (inactive) | 2.24 µM (inactive) | 1.72 µM (inactive) | 1.87 µM (inactive) | 1.65 µM (inactive) | 1.91 µM (inactive) | 1.85 µM (inactive) | 1.67 µM (inactive) |
| CCc1nc(N)nc(N)c1-c1ccc2nnn(O)c2c1 | > 100 µM (inactive) | > 100 µM (inactive) | > 89.1 µM (inactive) | > 100 µM (inactive) | > 100 µM (inactive) | > 100 µM (inactive) | > 100 µM (inactive) | > 72.8 µM (inactive) | > 100 µM (inactive) | > 100 µM (inactive) | > 100 µM (inactive) | > 100 µM (inactive) | > 100 µM (inactive) | > 100 µM (inactive) | > 100 µM (inactive) | > 100 µM (inactive) | > 100 µM (inactive) | > 100 µM (inactive) | > 100 µM (inactive) | > 100 µM (inactive) |
| Cc1ccc(S(=O)(=O)N2CCSCCSCCSCCN(S(=O)(=O)c3ccc(C)cc3)CC2)cc1 | > 100 µM (inactive) | > 100 µM (inactive) | > 100 µM (inactive) | > 100 µM (inactive) | > 100 µM (inactive) | > 100 µM (inactive) | > 100 µM (inactive) | > 100 µM (inactive) | > 100 µM (inactive) | > 100 µM (inactive) | > 100 µM (inactive) | > 100 µM (inactive) | > 100 µM (inactive) | > 100 µM (inactive) | > 100 µM (inactive) | > 100 µM (inactive) | > 100 µM (inactive) | > 100 µM (inactive) | > 100 µM (inactive) | > 100 µM (inactive) |
| CN1C(=O)c2ccc3ccccc3c2C1=O | > 100 µM (inactive) | > 100 µM (inactive) | > 100 µM (inactive) | > 100 µM (inactive) | > 100 µM (inactive) | > 100 µM (inactive) | > 100 µM (inactive) | > 100 µM (inactive) | > 100 µM (inactive) | > 100 µM (inactive) | 30.8 µM (inactive) | > 100 µM (inactive) | > 100 µM (inactive) | > 100 µM (inactive) | > 100 µM (inactive) | > 100 µM (inactive) | > 100 µM (inactive) | 63.5 µM (inactive) | > 100 µM (inactive) | > 100 µM (inactive) |
| COc1ccc(Nc2nc(N)c(C(=O)c3ccco3)s2)cc1 | > 67.8 µM (inactive) | > 63.8 µM (inactive) | 7.78 µM (inactive) | 10.7 µM (inactive) | 8.59 µM (inactive) | 65.2 µM (inactive) | > 88.1 µM (inactive) | 13.7 µM (inactive) | > 48.1 µM (inactive) | 16.6 µM (inactive) | 31.8 µM (inactive) | 39.3 µM (inactive) | 31.6 µM (inactive) | 23 µM (inactive) | > 70.8 µM (inactive) | > 56.5 µM (inactive) | 13.2 µM (inactive) | > 60.5 µM (inactive) | 40.4 µM (inactive) | 41.7 µM (inactive) |
| O=C1/C(=C/c2ccc([N+](=O)[O-])cc2)CNC/C1=C\c1ccc([N+](=O)[O-])cc1 | 2.69 µM (inactive) | 4.55 µM (inactive) | 1.41 µM (inactive) | 1.84 µM (inactive) | 1.36 µM (inactive) | 12.5 µM (inactive) | 2.69 µM (inactive) | 2.59 µM (inactive) | 3.63 µM (inactive) | 0.382 µM (active) | 12.2 µM (inactive) | 1.65 µM (inactive) | 10.2 µM (inactive) | 31.8 µM (inactive) | 5.41 µM (inactive) | 2.27 µM (inactive) | 0.638 µM (active) | 18.7 µM (inactive) | 0.469 µM (active) | 45.5 µM (inactive) |
| CC1(C)NC(=O)C(NC(=O)C(N)CC(=O)O)CCCCNC(=O)CCNC1=O (stereo not drawn) (H-DK[Aib][βAla]; lactam 2-C; configuration not given here) | > 100 µM (inactive) | > 100 µM (inactive) | > 100 µM (inactive) | > 100 µM (inactive) | > 100 µM (inactive) | > 100 µM (inactive) | > 100 µM (inactive) | > 100 µM (inactive) | > 100 µM (inactive) | > 100 µM (inactive) | > 100 µM (inactive) | > 100 µM (inactive) | > 100 µM (inactive) | > 100 µM (inactive) | – | > 100 µM (inactive) | > 100 µM (inactive) | > 100 µM (inactive) | > 100 µM (inactive) | > 100 µM (inactive) |
| CCOC(=O)Cn1c(C(F)(F)F)nc2nc(Cl)c(Cl)nc21 | 54.8 µM (inactive) | 19.5 µM (inactive) | 51.9 µM (inactive) | 22.8 µM (inactive) | 15.3 µM (inactive) | 41.3 µM (inactive) | 58.9 µM (inactive) | 27.9 µM (inactive) | 15.2 µM (inactive) | 6.58 µM (inactive) | 27.8 µM (inactive) | 34 µM (inactive) | 29 µM (inactive) | 24.7 µM (inactive) | 49.4 µM (inactive) | 34.4 µM (inactive) | 54 µM (inactive) | 33.3 µM (inactive) | 33.5 µM (inactive) | 19.6 µM (inactive) |
| CC(C)NC(=O)OCCN=C1c2ccccc2C(Br)C(Br)c2ccccc21 (stereo not drawn) | 10.4 µM (inactive) | 14.5 µM (inactive) | 4.7 µM (inactive) | 2.66 µM (inactive) | 21.8 µM (inactive) | 8.65 µM (inactive) | 11.5 µM (inactive) | 10.4 µM (inactive) | 6.93 µM (inactive) | 7.83 µM (inactive) | 2.87 µM (inactive) | 14.4 µM (inactive) | 19 µM (inactive) | 23.7 µM (inactive) | 12.6 µM (inactive) | 16.1 µM (inactive) | 3.76 µM (inactive) | 3.25 µM (inactive) | 10 µM (inactive) | 7.35 µM (inactive) |
| CCC1([N+](=O)[O-])CC2C=CC1C2 (stereo not drawn) | > 100 µM (inactive) | > 100 µM (inactive) | > 100 µM (inactive) | > 100 µM (inactive) | > 100 µM (inactive) | > 100 µM (inactive) | > 100 µM (inactive) | > 100 µM (inactive) | > 100 µM (inactive) | > 100 µM (inactive) | > 100 µM (inactive) | > 100 µM (inactive) | > 100 µM (inactive) | > 100 µM (inactive) | > 100 µM (inactive) | > 100 µM (inactive) | > 100 µM (inactive) | > 100 µM (inactive) | > 100 µM (inactive) | > 100 µM (inactive) |
| COc1ccc(CCNC2=CC(=O)c3ncccc3C2=O)cc1OC | 1.3 µM (inactive) | 1.89 µM (inactive) | 2.12 µM (inactive) | 1.55 µM (inactive) | 3.59 µM (inactive) | 1.15 µM (inactive) | 0.789 µM (active) | 0.394 µM (active) | 2.47 µM (inactive) | 5.57 µM (inactive) | 3.9 µM (inactive) | 5.18 µM (inactive) | 0.794 µM (active) | 1.48 µM (inactive) | 0.973 µM (active) | 1.86 µM (inactive) | 1.68 µM (inactive) | 5.09 µM (inactive) | 0.863 µM (active) | 1.19 µM (inactive) |
| CC(C)(C)O/N=C/c1cc(NC(=S)c2ccccc2)ccc1Cl | 15.6 µM (inactive) | 13.7 µM (inactive) | 13.7 µM (inactive) | 12.1 µM (inactive) | 12.7 µM (inactive) | 18.6 µM (inactive) | 21.3 µM (inactive) | 6.89 µM (inactive) | 18.3 µM (inactive) | 11.5 µM (inactive) | 12.3 µM (inactive) | 21.1 µM (inactive) | 18 µM (inactive) | 16.6 µM (inactive) | 12.2 µM (inactive) | 22.4 µM (inactive) | 18.7 µM (inactive) | 18.9 µM (inactive) | 17 µM (inactive) | 13.1 µM (inactive) |
| CC1=NN2CCC(=O)N=C2S1 | > 100 µM (inactive) | > 100 µM (inactive) | > 100 µM (inactive) | > 100 µM (inactive) | > 100 µM (inactive) | > 100 µM (inactive) | > 100 µM (inactive) | > 100 µM (inactive) | > 100 µM (inactive) | > 100 µM (inactive) | > 100 µM (inactive) | > 100 µM (inactive) | > 100 µM (inactive) | > 100 µM (inactive) | > 100 µM (inactive) | > 100 µM (inactive) | > 100 µM (inactive) | > 100 µM (inactive) | > 100 µM (inactive) | > 100 µM (inactive) |
| COc1ccc(/N=N/c2c(C)c(C#N)c(=S)n(C3OC(COC(C)=O)C(OC(C)=O)C(OC(C)=O)C3OC(C)=O)c2-c2ccccc2)cc1 (stereo not drawn) | 5.33 µM (inactive) | 11.6 µM (inactive) | 5.94 µM (inactive) | – | 8.43 µM (inactive) | 1.94 µM (inactive) | 6.04 µM (inactive) | 4.76 µM (inactive) | 3.15 µM (inactive) | 5.65 µM (inactive) | 11.5 µM (inactive) | 9.59 µM (inactive) | 5.85 µM (inactive) | 8.04 µM (inactive) | 7.96 µM (inactive) | 11 µM (inactive) | 2.92 µM (inactive) | 19.4 µM (inactive) | 10.7 µM (inactive) | 22.4 µM (inactive) |
